From paper PMC12040169 (PLOS Biology, 2025)

Assay: in vitro
Details: human, hela cells, % viability

SMILES | viability at 28.5 h, 10 µM [%]
COCC(C)NC(=O)c1cc2c(C)cc(C)cc2[nH]1 (centres unmarked) [CBK057591] | 91.8
NC(=O)CN1CCC(Cc2ccccc2)CC1 [CBK138319] | 109
COc1ccc([C@@]23CC[C@@H](NC(=O)Nc4cccc(C#N)c4)C[C@@H]2N(C)CC3)cc1OC [CBK036448T] | 103
CCCCOc1ccc(C(=O)N(C)c2ccc(CCC)cc2)cc1 [CBK161619] | 95.9
Cn1c(Cc2nn(C)c(=O)c3ccccc23)nnc1SCC(=O)C(C)(C)C [CBK010985] | 105
Cn1ccnc1CNC(=O)N1CCCC(C(=O)c2cccc(Cl)c2)C1 (centres unmarked) [CBK307479] | 105
O=C(Nc1ccc(OC(F)(F)F)cc1)c1cnc(-c2ccc(Cl)cc2)c(-c2ccco2)c1 [CBK037456] | 106
CCN(C(=O)c1cnccn1)C(CC1CCCCC1)c1ccccc1 (centres unmarked) [CBK061638] | 92.9
CCOC(=O)CCNC(=O)C1(c2ccccc2)CCCC1 [CBK149543] | 88.2
CN(C)C(=O)Cn1nc(-c2cccc(-n3cccc3)c2)oc1=O [CBK283759] | 103
Cc1cc2c3c(c1)c1c(n3CCC2)CCNCC1 [CBK018380C] | 96.9
CC(C)c1cc(C(=O)N2C[C@H](C)N(Cc3ccco3)C[C@@H]2C)on1 [CBK283053] | 90.9
Cn1nc(C2CC2)cc1C(=O)NCCN1CCc2ccccc21 [CBK282138] | 91.5
NC(CC(=O)O)c1cccc([N+](=O)[O-])c1 (centres unmarked) [CBK262903C] | 96.9
O=c1nc(-c2ccccc2Cl)oc2ccccc12 [CBK152263] | 89.9
O=C1COCC(=O)N1c1ccccn1 [CBK006233] | 89.2
Cc1cccc2cc(/C=C(\C#N)c3nc(-c4cc5ccccc5oc4=O)cs3)c(Cl)nc12 [CBK261642] | 85.4
CC(C)(C)C(=O)Nc1nnc(SCC(=O)N2CCc3ccccc32)s1 [CBK004889] | 83.5
CC(=O)c1cccc(NC(=O)N(CCO)C2CCc3ccccc32)c1 (centres unmarked) [CBK305517] | 93.4
O=C(CCc1ccncc1)N1CCCCC1CN1CCCCCC1 (centres unmarked) [CBK282102] | 99.6
CN(C)c1ncccc1OC1CCN(c2ccnc(C3CC3)n2)C1 (centres unmarked) [CBK306182] | 56.3
Cc1ccc2c(c1)c(=O)cc(C(F)(F)F)n2CCNC(=O)C1CC1 [CBK284831] | 93.1
C[C@@H](c1ccccc1)n1c(=O)[nH]c2ncc(-c3ccco3)nc21 [CBK064168] | 112

SMILES | viability at 28.5 h, 10 µM [%]
COc1ccccc1OCCCN1C(=O)C2(CC(=O)N(C)C2=O)c2cc(F)ccc21 (centres unmarked) [CBK075430] | 88.2
Cc1ccc(C(=O)CC(C(=O)O)P(=O)(c2ccccc2)c2ccccc2)cc1 (centres unmarked) [CBK265022] | 90.1
Cc1cccn2c(CN(C)C(C)C(N)=O)c(C(=O)N3CCOCC3)nc12 (centres unmarked) [CBK306592] | 105
CC(CC(=O)O)CC(=O)Nc1cccc(C(=O)O)c1 (centres unmarked) [CBK265651] | 99.1
O=C(CSc1ccccc1)Nc1cccc(NC(=O)c2cccs2)c1 [CBK266788] | 96.7
COc1ccc(OC(=O)c2ccc3nonc3c2)cc1 [CBK083571] | 97.9
O=[N+]([O-])c1ccc(N2CCNCC2)cc1NCc1ccccn1 [CBK268074] | 122
Cc1c(C(=O)O)sc2nc(SC/C=C/c3ccccc3)nc(N)c12 [CBK300523] | 83.4
CC(C)(CO)CCCn1cncc1-c1cnn(C2CCCCC2)c1 [CBK281779] | 86.7
Clc1ccc(CN2CCN(c3nccnc3OCCN3CCOCC3)CC2)cc1 [CBK082887T] | 97.4
CCOC(=O)c1ccc(-c2ccc(C(=O)Nc3ccc(-c4nc5ccccc5o4)c(O)c3)o2)cc1 [CBK263428] | 99
Cc1nc(CNCc2c(C)nn(C)c2N2CCOCC2)cs1 [CBK305753] | 83.7
O=S(=O)(Nc1ccccc1)c1ccccc1I [CBK057566] | 92.5
NS(=O)(=O)c1ccc(NC(=O)CSc2ccc3ccccc3c2)cc1 [CBK268203] | 89.8
CCOC(=O)c1c(NS(=O)(=O)Cc2ccccc2[N+](=O)[O-])sc2c1CCCC2 [CBK004651] | 95.8
C=CCn1c(C)c(CN2CCc3nc(C)[nH]c(=O)c3C2)c2ccccc21 [CBK282375] | 97.3
C=CCOC(=O)N1CCC(C(=O)NC(c2ccccn2)c2ccccc2C)CC1 (centres unmarked) [CBK059689] | 94
Cc1ccc(S(=O)(=O)N2CCN(CCCc3ccccc3)CC2)cc1 [CBK263453] | 95.2
COc1ccc([C@@]23CCC(NC(=O)CCc4cccnc4)C[C@@H]2N(C)CC3)cc1OC (some centres unmarked) [CBK003770] | 92.8
Cc1ccn(CCNC(=O)c2cc3cccc(C)c3nc2C)n1 [CBK282645] | 82.3
Cc1cc(N2CCN(Cc3nc(C(C)(C)C)no3)CC2)nc(C(C)C)n1 [CBK305333] | 96.3
O=c1[nH]cnc2c([C@@H]3O[C@H](CO)[C@H](O)C3O)n[nH]c12 (some centres unmarked) [CBK201242] | 98.1
O=C1c2ccc(Oc3cccc([N+](=O)[O-])c3)cc2C(=O)N1c1ccccn1 [CBK261190] | 95.8

SMILES | viability at 28.5 h, 10 µM [%]
O=S(=O)(Nc1cccc(-c2cnco2)c1)c1cc(C(F)(F)F)cc(C(F)(F)F)c1 [CBK067127] | 109
c1csc(Sc2nc3ccccc3nc2N2CCCC2)c1 [CBK115225] | 94.3
Cc1ccc(Nc2ncc(C(=O)NCCCN3CCCCCC3)c3ccccc23)cc1Cl [CBK291197] | 105
Cc1cnc(NC(=O)C2CC(=O)N(Cc3cccs3)C2)s1 (centres unmarked) [CBK175531] | 90.9
O=C(O)c1ccc(NS(=O)(=O)/C=C/c2ccccc2)cc1 [CBK034062] | 100
Cc1ccc2cc3c(nc2c1)OCC(=O)N(Cc1ccco1)C3 [CBK283539] | 92.9
O=C1N=C(NC2C3CC4CC(C3)CC2C4)OC12CCN(CCC(F)(F)F)CC2 (centres unmarked) [CBK115640] | 91.4
CCOCN(C(=O)Cn1c(C(C)O)nc2ccccc21)c1c(C)cccc1CC (centres unmarked) [CBK297722] | 87.6
CC(=O)c1ccc(NC(=O)C(C)SCc2ccc(C)cc2)cc1 (centres unmarked) [CBK296616] | 96.7
COCCNC(=O)c1cc(-c2cccc(N(C)C)c2)cnc1NCC1CC1 [CBK076288] | 93.9
CCNC(=O)Nc1ncc(-c2ccc(OC(F)(F)F)cc2)c2cccnc12 [CBK070690] | 94
O=C(O)CC1S/C(=N/N=C/c2ccc(-c3cccc([N+](=O)[O-])c3)o2)NC1=O (centres unmarked) [CBK264517] | 113
O=C1COCC(=O)N1c1ccc(I)cc1 [CBK086499] | 87.5
CC(C)c1nsc(NS(=O)(=O)c2cccc(C(F)(F)F)c2)n1 [CBK038881] | 98.3
Nc1nccc2c1ncn2[C@H]1C[C@@H](O)[C@@H](CO)O1 [CBK201157] | 97.1
c1ccc(Sc2nccnc2N2CCCC2)nc1 [CBK093734] | 87.7
CC(C)(C)c1cc(NC(=O)C(C)(C)S(=O)(=O)c2ccc(C(F)(F)F)cn2)no1 [CBK006849] | 113
Oc1ccc(Cn2ccnc2)c2cccnc12 [CBK291102] | 89.3
COc1ccc(C2=NN(CN3C(=O)C(=O)c4cc(Br)ccc43)C(c3cccc([N+](=O)[O-])c3)C2)cc1 (centres unmarked) [CBK263490] | 119
O=C(NCCc1ccsc1)N1CCN(c2ccncc2)CC1 [CBK305595] | 102
O=C(CSCc1nc2ccccc2c(=O)n1-c1ccccc1Cl)Nc1ccccc1 [CBK070895] | 95.2
Cn1cc(C(=O)N2CCc3ccccc3C2)c2ccccc21 [CBK200338] | 90
Cc1nn(C(C)C)c(C)c1CN1CCC(c2c(C(=O)NC(C)C)sc3ccccc23)C1 (centres unmarked) [CBK285890] | 95.5

SMILES | viability at 28.5 h, 10 µM [%]
Cc1ccc(NC(=S)N(CCN(C)C)Cc2cc3ccc(C)cc3[nH]c2=O)c(C)c1 [CBK135134] | 92.4
CCOC(=O)c1[nH]c2ccccc2c1NC(=O)c1cc(F)cc(Cl)c1 [CBK160143] | 95.4
Cc1ccc(NC(=O)c2nc3ccccc3[nH]2)c(C)n1 [CBK200296] | 94.4
CC(NC(=O)c1cn(-c2ccccc2)nc1-c1cccnc1)c1ccccn1 (centres unmarked) [CBK295660] | 105
CC(C)Cn1c(-c2ccc(F)cc2)cnc1SC(C)C(=O)NC(N)=O (centres unmarked) [CBK295635] | 91.9
CCN(CC)C(=O)CN(CCc1ccc(OC)c(OC)c1)C(=O)NCc1cc(C)on1 [CBK160581] | 96.1
COc1ccc(C2=NNC(=O)C(c3ccc(OC)cc3)C2)cc1 (centres unmarked) [CBK287908] | 99.7
O=S1(=O)CCN(Cc2cn(-c3ccc(-c4ccccc4)cc3)nn2)CC1 [CBK113105] | 95.4
COc1ccc(NC(=O)[C@@H]2C=CCN2C(=O)C2CC2)cc1 [CBK284277] | 98.2
COc1ccccc1N1CCn2c1nc1c2c(=O)n(CCN2CCOCC2)c(=O)n1C [CBK269265] | 93.4
COc1ccc2nc(C)c(CCC(=O)O)c(O)c2c1 [CBK286955] | 98.8
Cc1nnc(N2C(=O)c3oc4ccc(Cl)cc4c(=O)c3C2c2cccnc2)s1 (centres unmarked) [CBK267010] | 105
Cc1cc(COc2nccnc2OC2CCN(CCN3CCOCC3)CC2)no1 [CBK082961T] | 103
O=C(NCCn1nc(-c2ccco2)ccc1=O)C1CCCCC1 [CBK283743] | 105
O=C(Nc1ccccc1)Nc1ccc2c(c1)S(=O)(=O)c1cc(NC(=O)Nc3ccccc3)ccc1-2 [CBK262320] | 94.6
O=C(Cn1cnc2ccc(F)cc2c1=O)N1CCOC2CCCC21 (centres unmarked) [CBK304932] | 90.4
CCCN1CC(NS(=O)(=O)c2cc(OC)c(C)cc2OC)CC1=O (centres unmarked) [CBK307036] | 75.4
Cc1ccc(C(=O)N(C)C2CCCCC2)cc1C [CBK083667] | 137
COc1cccc(CN2CCOC3(CCN(C(=O)OCc4ccccc4)CC3)C2)c1 [CBK161098T] | 95.4
CCOC(=O)c1cn[nH]c1N [CBK175217] | 89.4
